Experimental data from ChEMBL document CHEMBL1268819, “Design, synthesis, and biological evaluation of 4-(5-nitrofuran-2-yl)prop-2-en-1-one derivatives as potent antitubercular agents” (Bioorg Med Chem Lett, 2010).
Values after ≈ are worked out from the molar mass of the structure shown.

What was measured:
[1] = test system: Mycobacterium tuberculosis; test: Antitubercular activity against Mycobacterium tuberculosis H37Rv by resazurin microtiter assay; assay type: functional
[2] = Toxicity in African green monkey Vero cells; assay type: cell-based; conditions: chlorocebus sabaeus
[3] = Selectivity index, ratio of CC50 for African green monkey Vero cells to MIC for Mycobacterium tuberculosis H37Rv; assay type: functional

Row | SMILES | MIC [1] [µM] | CC50 [2] [µM] | Selectivity Index [3]
1 | COc1ccc(COc2ccc(C(=O)/C=C/c3ccc([N+](=O)[O-])o3)cc2)cc1 | 1.85 (≈ 0.702 µg/mL) | 311 | 
2 | COc1cc(C(=O)/C=C/c2ccc([N+](=O)[O-])o2)cc(OC)c1OC | 6.06 (≈ 2.02 µg/mL) | 384 | 
3 | O=C(/C=C/c1ccc([N+](=O)[O-])o1)c1ccc(OCc2ccc(OC(F)(F)F)cc2)cc1 | 1.66 (≈ 0.719 µg/mL) | 335 | 
4 | O=C(/C=C/c1ccc([N+](=O)[O-])o1)c1ccc(Br)cc1 | 3.88 (≈ 1.25 µg/mL) | 354 | 
5 | O=C(/C=C/c1ccc([N+](=O)[O-])o1)c1ccc(N2CCN(Cc3ccccc3)CC2)cc1 | > 31.7 | 299 | 
6 | NNC(=O)c1ccncc1 [ISONIAZID] | 1.8 (≈ 0.247 µg/mL) | > 500 | 
7 | O=C(/C=C/c1ccc([N+](=O)[O-])o1)c1ccc(F)cc1 | 4.17 (≈ 1.09 µg/mL) | 463 | 
8 | CCN(CC)c1ccc(C(=O)/C=C/c2ccc([N+](=O)[O-])o2)cc1 | 0.48 (≈ 0.151 µg/mL) | 334 | 
9 | O=C(/C=C/c1ccc([N+](=O)[O-])o1)c1ccc(OCc2ccccc2)cc1 | 3.29 (≈ 1.15 µg/mL) | 515 | 
10 | O=C(/C=C/c1ccc([N+](=O)[O-])s1)c1ccc(N2CCCCC2)cc1 | 15.6 (≈ 5.35 µg/mL) | 404 | 
11 | Cc1ccc(C(=O)/C=C/c2ccc([N+](=O)[O-])o2)cc1 | 4.35 (≈ 1.12 µg/mL) | 439 | 
12 | O=C(/C=C/c1ccc([N+](=O)[O-])o1)c1ccccc1 | 5.51 (≈ 1.34 µg/mL) | 444 | 
13 | O=C(/C=C/c1ccco1)c1ccc(F)cc1 | > 93.9 | 661 | 
14 | O=C(/C=C/c1ccc([N+](=O)[O-])o1)c1ccc(N2CCOCC2)cc1 | 0.38 (≈ 0.125 µg/mL) | 387 | 
15 | COc1ccc(C(=O)/C=C/c2ccc([N+](=O)[O-])o2)cc1 | 3.84 (≈ 1.05 µg/mL) | 571 | 
16 | O=C(/C=C/c1ccc([N+](=O)[O-])o1)c1ccc(OCc2ccc(Cl)cc2Cl)cc1 | > 46.6 | 340 | 
17 | O=C(/C=C/c1ccc([N+](=O)[O-])o1)c1ccc(N2CCCCC2)cc1 | 0.19 (≈ 0.062 µg/mL) | 349 | >1800
18 | O=C(/C=C/c1ccc([N+](=O)[O-])o1)c1ccc(Cl)cc1 | 4.5 (≈ 1.25 µg/mL) | 558 | 
19 | C=C(C)COc1ccc(C(=O)/C=C/c2ccc([N+](=O)[O-])o2)cc1 | 5.59 (≈ 1.75 µg/mL) | 393 | 
20 | O=C(/C=C/c1ccc([N+](=O)[O-])o1)c1ccc(N2CCN(C/C=C/c3ccccc3)CC2)cc1 | > 32.7 | 343 | 
21 | O=C(/C=C/c1ccc([N+](=O)[O-])o1)c1ccco1 | 8.28 (≈ 1.93 µg/mL) | 776 | 
22 | O=C(/C=C/c1ccc([N+](=O)[O-])o1)c1cccs1 | 5.86 (≈ 1.46 µg/mL) | 742 | 
23 | O=C(/C=C/c1ccc([N+](=O)[O-])o1)c1ccc(OCc2ccc(F)cc2)cc1 | 19.8 (≈ 7.27 µg/mL) | 430 | 
24 | O=C(/C=C/c1ccc([N+](=O)[O-])o1)c1ccc(Cl)cc1Cl | 14.1 (≈ 4.41 µg/mL) | 417 | 
25 | O=C(/C=C/c1ccc([N+](=O)[O-])o1)c1ccc(OCc2cccc(Cl)c2)cc1 | 6.1 (≈ 2.34 µg/mL) | 307 | 
26 | O=C(/C=C/c1ccc([N+](=O)[O-])o1)c1cc2ccccc2oc1=O | 29.9 (≈ 9.32 µg/mL) | 360 | 
